# Assay results as given in patent US10961200B2, “Small molecule inhibitors of lactate dehydrogenase and methods of use thereof” (THE UNITED STATES OF AMERICA, AS REPRESENTED BY THE …, priority 2014, dated 2021).
# Assays:
# Human LDHA = Human LDHA (Homo sapiens (Human), UniProt P00338); experiment: human LDHA primary biochemical assay (resazurin/diaphorase coupled, fluorescence); details: LDHA inhibitory activity
# Description: Test compounds were placed in a Greiner Bio-One (Monroe, N.C.) 1536-well black solid bottom assay plate. 200 millimolar (mM) Tris HCl, pH 7.4, 100 micromolar […] EDTA and 0.01% TWEEN-20™, final concentration, was used as the assay buffer. The LDHA reagent was 2 nanomolar (nM) Human LDHA (Meridian Life Science, Inc., Memphis, Tenn.), final concentration, in assay buffer.
# MiaPaCa2 cells = experiment: cell-based HT lactate assay, colorimetric/fluorometric detection (inhibition of lactate production); details: class symbols, 0 to 3 pluses
# Experimental: Cell-based HT Lactate assay is a miniaturized Biovision Lactate Colorimetric/Fluorometric Assay Kit (Cat #K607-100). The assay is roughly a 3.5 hour assay run in a 1536 plate format. Cell number optimization should be run for each cell line to achieve an optimal number in which lactate production equals roughly 90% of the standard curve range. Cell number per well optimization has been performed with the following cell lines: MiaPaCa2—500 cells/well, SNU398—500 cells/well, and P493—500 cells/well.
# The lactate activity in Table 8 is represented by 0 to 3 pluses as follows: +++<1 μM; ++1-10 μM; +10-57 μM; and −>57 μM.
# [1] = assay of Example 1, activity level classes
# [2] = activity level based on IC50 (Table 7)
IC50 (Human LDHA; [2]) [µM],"IC50 (MiaPaCa2 cells; Homo sapiens, MIA PaCa-2) [µM]",Compound,IC50 (Human LDHA; [1]) [µM],IC50 (MiaPaCa2 cells) [µM]
,,NS(=O)(=O)c1ccc(Cc2c(-c3ccc(F)c(C#CC4CCCC4)c3)nn(-c3nc(C(=O)O)cs3)c2CC2CC2)cc1F [Compound 258],< 0.1,< 1
,,CN1CC=C(c2cc(-c3nn(-c4nc(C(=O)O)cs4)c(CC4CC4)c3Cc3ccc(S(N)(=O)=O)c(F)c3)ccc2F)CC1 [Compound 259],< 0.1,10 to 57
,,NS(=O)(=O)c1ccc(Cc2c(-c3ccc(F)c(C#CC4CCNCC4)c3)nn(-c3nc(C(=O)O)cs3)c2CC2CC2)cc1F [Compound 261],< 0.1,1 to 10
,,NS(=O)(=O)c1ccc(Cc2c(-c3ccc(F)c(C#CCN4CCOCC4)c3)nn(-c3nc(C(=O)O)cs3)c2CC2CC2)cc1F [Compound 263],< 0.1,10 to 57
,,C=C(C)C#Cc1cc(-c2nn(-c3nc(C(=O)O)cs3)c(CC3CC3)c2Cc2ccc(S(N)(=O)=O)c(F)c2)ccc1F [Compound 264],< 0.1,< 1
,,CC(C)(O)C#Cc1cc(-c2nn(-c3nc(C(=O)O)cs3)c(CC3CC3)c2Cc2ccc(S(N)(=O)=O)c(F)c2)ccc1F [Compound 265],< 0.1,1 to 10
,,CCOC(=O)c1csc(-n2nc(-c3cccc(-c4ccc(C)cc4)c3)c(Cc3ccc(S(N)(=O)=O)c(F)c3)c2CC2CC2)n1 [Compound 266],1 to 57,> 57
,,NS(=O)(=O)c1ccc(Cc2c(-c3cccc(N4CCOCC4)c3)nn(-c3ncc(C(=O)O)s3)c2CC2CC2)cc1F [Compound 267],< 0.1,10 to 57
,,CCOC(=O)c1csc(-n2nc(-c3ccc(F)c(C#CC4CCCC4)c3)c(Cc3ccc(S(N)(=O)=O)c(F)c3)c2CC2CC2)n1 [Compound 268],> 57,> 57
,,CC#Cc1cccc(-c2nn(-c3ncc(C(=O)OCC)s3)c(CC3CC3)c2Cc2ccc(S(N)(=O)=O)c(F)c2)c1 [Compound 269],1 to 57,< 1
,,Cc1ccc(-c2cccc(-c3nn(-c4nc(C(=O)O)cs4)c(CC4CC4)c3Cc3ccc(S(N)(=O)=O)cc3)c2)cc1 [Compound 281],< 0.1,< 1
,,Cc1ccc(-c2cc(-c3nn(-c4nc(C(=O)O)cs4)c(CC4CC4)c3Cc3ccc(S(N)(=O)=O)cc3)ccc2F)cc1 [Compound 284],< 0.1,< 1
,,Cc1ccc(-c2cc(-c3nn(-c4nc(C(=O)O)cs4)c(CC4CC4)c3Cc3ccc(S(N)(=O)=O)c(F)c3)ccc2F)cc1 [Compound 288],< 0.1,< 1
,,NS(=O)(=O)c1ccc(Cc2c(-c3cccc(-c4ccccc4)c3)nn(-c3nc(C(=O)O)cs3)c2CC2CC2)c(F)c1 [Compound 290],< 0.1,< 1
,,N[S+](=O)([O-])c1ccc(Cc2c(-c3ccc(F)c(-c4ccc(C5CC5)cc4)c3)nn(-c3nc(C(=O)O)cs3)c2CC2CC2)cc1 [Compound 294],< 0.1,< 1
,,NS(=O)(=O)c1ccc(Cc2c(-c3ccc(F)c(Br)c3)nn(-c3nc(C(=O)O)cs3)c2CC2CC2)cc1 [Compound 296],< 0.1,1 to 10
,,NS(=O)(=O)c1ccc(Cc2c(-c3cccc(-c4ccccc4)c3)nn(-c3nc(C(=O)O)cs3)c2CC(F)(F)F)cc1 [Compound 304],0.1 to 1,10 to 57
,,CC(C)c1ccc(-c2cc(-c3nn(-c4nc(C(=O)O)cs4)c(CC4CC4)c3Cc3ccc([S+](N)(=O)[O-])cc3)ccc2F)cc1 [Compound 306],< 0.1,< 1
,,Cc1ccc(-c2cc(-c3nn(-c4nc(C(=O)O)cs4)c(CC4CC4)c3Cc3ccc(S(N)(=O)=O)cc3F)ccc2F)cc1 [Compound 307],< 0.1,< 1
,,N[S+](=O)([O-])c1ccc(Cc2c(-c3ccc(F)c(-c4ccc(F)cc4)c3)nn(-c3nc(C(=O)O)cs3)c2CC2CC2)c(F)c1 [Compound 309],< 0.1,< 1

IC50 (Human LDHA; [2]) [µM],"IC50 (MiaPaCa2 cells; Homo sapiens, MIA PaCa-2) [µM]",Compound,IC50 (Human LDHA; [1]) [µM],IC50 (MiaPaCa2 cells) [µM]
,,N[S+](=O)([O-])c1ccc(Cc2c(-c3ccc(F)c(-c4ccc(F)cc4)c3)nn(-c3nc(C(=O)O)cs3)c2CC2CC2)cc1 [Compound 310],< 0.1,< 1
,,N[S+](=O)([O-])c1ccc(Cc2c(-c3ccc(F)c(-c4cccc(F)c4)c3)nn(-c3nc(C(=O)O)cs3)c2CC2CC2)c(F)c1 [Compound 324],< 0.1,< 1
,,N[S+](=O)([O-])c1ccc(Cc2c(-c3ccc(F)c(-c4cccc(F)c4)c3)nn(-c3nc(C(=O)O)cs3)c2CC2CC2)cc1F [Compound 326],< 0.1,< 1
,,COc1cccc(-c2cc(-c3c(Cc4ccc(S(N)(=O)=O)cc4F)c(CC4CC4)nn3-c3nc(C(=O)O)cs3)ccc2F)c1 [Compound 327],1 to 57,10 to 57
,,COc1cccc(-c2cc(-c3nn(-c4nc(C(=O)O)cs4)c(CC4CC4)c3Cc3ccc(S(N)(=O)=O)c(F)c3)ccc2F)c1 [Compound 330],< 0.1,< 1
,,NS(=O)(=O)c1ccc(Cc2c(-c3cccc(-c4ccccc4)c3)nn(-c3nc(C(=O)O)cs3)c2CC2CC2)cc1F [Compound 331],< 0.1,< 1
,,Cc1ccc(-c2cccc(-c3nn(-c4nc(C(=O)O)cs4)c(CC4CC4)c3Cc3ccc(S(N)(=O)=O)c(F)c3)c2)cc1 [Compound 332],< 0.1,< 1
,,NS(=O)(=O)c1ccc(Cc2c(-c3cccc(OC4CCCC4)c3)nn(-c3nc(C(=O)O)cs3)c2CC2CC2)cc1F [Compound 336],< 0.1,< 1
,,NS(=O)(=O)c1ccc(Cc2c(-c3cccc(OC4CCCC4)c3)nn(-c3nc(C(=O)O)cs3)c2CC2CC2)cc1 [Compound 337],< 0.1,< 1
< 0.1,< 1,N[S+](=O)([O-])c1ccc(Cc2c(-c3cccc(OC4CCCC4)c3)nn(-c3nc(C(=O)O)cs3)c2CC2CC2)c(F)c1 [Compound 338],,
< 0.1,,N[S+](=O)([O-])c1ccc(Cc2c(-c3ccc(F)c(-c4ccccc4F)c3)nn(-c3nc(C(=O)O)cs3)c2CC2CC2)cc1F [Compound 366],,< 1
< 0.1,,N[S+](=O)([O-])c1ccc(Cc2c(-c3ccc(F)c(-c4ccccc4)c3)nn(-c3nc(C(=O)O)cs3)c2CC2CC2)cc1F [Compound 367],,< 1
1 to 57,,NS(=O)(=O)c1cccc(Cc2c(-c3ccc(F)c(-c4cccc(F)c4)c3)nn(-c3nc(C(=O)O)cs3)c2CC2CC2)c1 [Compound 368],,10 to 57
< 0.1,,N[S+](=O)([O-])c1ccc(Cc2c(-c3ccc(F)c(C4=CCNCC4)c3)nn(-c3nc(C(=O)O)cs3)c2CC2CC2)cc1F [Compound 369],,10 to 57
< 0.1,,N[S+](=O)([O-])c1ccc(Cc2c(-c3cccc(-c4cccc(F)c4)c3)nn(-c3nc(C(=O)O)cs3)c2CC2CC2)cc1 [Compound 370],,1 to 10
< 0.1,,N=[S+](N)([O-])c1ccc(Cc2c(-c3ccc(F)c(-c4cccc(F)c4)c3)nn(-c3nc(C(=O)O)cs3)c2CC2CC2)cc1F (stereo not drawn) [Compound 371],,< 1
< 0.1,,N[S+](=O)([O-])c1ccc(Cc2c(-c3ccc(F)c(C4CCCCC4)c3)nn(-c3nc(C(=O)O)cs3)c2CC2CC2)cc1F [Compound 374],,< 1
< 0.1,,N[S+](=O)([O-])c1ccc(Cc2c(-c3ccc(F)c(C4=COCCC4)c3)nn(-c3nc(C(=O)O)cs3)c2CC2CC2)cc1F [Compound 379],,< 1
< 0.1,,N[S+](=O)([O-])c1ccc(Cc2c(-c3ccc(F)c(C4=CCN(C(=O)C5CC5)CC4)c3)nn(-c3nc(C(=O)O)cs3)c2CC2CC2)cc1F [Compound 380],,1 to 10
< 0.1,,N[S+](=O)([O-])c1ccc(Cc2c(-c3ccc(F)c(C4CCC4)c3)nn(-c3nc(C(=O)O)cs3)c2CC2CC2)cc1F [Compound 382],,< 1

Compound,IC50 (Human LDHA; [2]) [µM],"IC50 (MiaPaCa2 cells; Homo sapiens, MIA PaCa-2) [µM]",IC50 (Human LDHA; [1]) [µM],IC50 (MiaPaCa2 cells) [µM]
NS(=O)(=O)c1ccc(Cc2c(-c3cccc(-c4cccc(F)c4)c3)nn(-c3nc(C(=O)O)cs3)c2CC2CC2)cc1F [Compound 365],< 0.1,,,< 1
NS(=O)(=O)c1ccc(Cc2c(-c3cccc(C4CCCC4)c3)nn(-c3nc(C(=O)O)cs3)c2CC2CC2)cc1 [Compound 372],< 0.1,,,1 to 10
NS(=O)(=O)c1ccc(Cc2c(-c3ccc(F)c(C4CCCC4)c3)nn(-c3nc(C(=O)O)cs3)c2CC2CC2)cc1F [Compound 373],< 0.1,,,< 1
NS(=O)(=O)c1ccc(Cc2c(-c3ccc(F)c(C4C5CC6CC(C5)CC4C6)c3)nn(-c3nc(C(=O)O)cs3)c2CC2CC2)cc1F (stereo not drawn) [Compound 375],0.1 to 1,,,1 to 10
N[S+](=O)([O-])c1ccc(Cc2c(-c3cccc(S(F)(F)(F)(F)F)c3)nn(-c3nc(C(=O)O)cs3)c2CC2CC2)cc1F [Compound 376],< 0.1,,,< 1
CCOC(=O)c1csc(-n2nc(-c3ccc(F)c(-c4cccc(F)c4)c3)c(Cc3ccc([S+](N)(=O)[O-])c(F)c3)c2CC2CC2)n1 [Compound 377],> 57,,,> 57
NS(=O)(=O)c1ccc(Cc2c(-c3ccc(F)c(CC4CC4)c3)nn(-c3nc(C(=O)O)cs3)c2CC2CC2)cc1F [Compound 378],< 0.1,,,< 1
CCC(C)(C)c1cc(-c2nn(-c3nc(C(=O)O)cs3)c(CC3CC3)c2Cc2ccc(S(N)(=O)=O)c(F)c2)ccc1F [Compound 381],< 0.1,,,< 1
